Measured values reported in ChEMBL document CHEMBL1201862, “PubChem BioAssay data set” (2004).
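A five-concentration, 48-hour dose response in 96-well plates underlies each endpoint, interpolated linearly between surrounding concentrations. Here, GI50 denotes the concentration required for 50% inhibition of growth.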 Activity calls are given as the source filed them. Rule as the data show it: active = GI50 up to about 1.1 µM and inactive = higher.

Assays:
Assay in all cases: inhibition of tumour cell growth, NCI panel, 48 h
SN12C = system: SN12C
NCI-H23 = system: NCI-H23
MCF7 = system: MCF7
LOX IMVI = system: LOX IMVI
Malme-3M = system: Malme-3M
UO-31 = system: UO-31
COLO 205 = system: COLO 205
SNB-75 = system: SNB-75
NCI-H522 = system: NCI-H522
RPMI-8226 = system: RPMI-8226
Hs-578T = system: Hs-578T
OVCAR-3 = system: OVCAR-3
SK-MEL-2 = system: SK-MEL-2
MOLT-4 = system: MOLT-4
EKVX = system: EKVX
SF-539 = system: SF-539
SF-295 = system: SF-295
HOP-62 = system: HOP-62
A549 = system: A549
ACHN = system: ACHN
DU-145 = system: DU-145
SK-MEL-5 = system: SK-MEL-5
OVCAR-8 = system: OVCAR-8
KM12 = system: KM12
OVCAR-5 = system: OVCAR-5
MDA-MB-435 = system: MDA-MB-435
BT-549 = system: BT-549
MDA-N = system: MDA-N
NCI/ADR-RES = system: NCI/ADR-RES
MDA-MB-231 = system: MDA-MB-231
SW-620 = system: SW-620
OVCAR-4 = system: OVCAR-4
SK-MEL-28 = system: SK-MEL-28
SR = system: SR
CAKI-1 = system: CAKI-1
IGROV-1 = system: IGROV-1
HCT-116 = system: HCT-116
HCT-15 = system: HCT-15
TK-10 = system: TK-10
M14 = system: M14
K562 = system: K562
786-0 = system: 786-0
PC-3 = system: PC-3
NCI-H226 = system: NCI-H226
U-251 = system: U-251
T47D = system: T47D
HOP-92 = system: HOP-92
CCRF-CEM = system: CCRF-CEM
HT-29 = system: HT-29
UACC-257 = system: UACC-257
RXF 393 = system: RXF 393
SK-OV-3 = system: SK-OV-3
HL-60 = system: HL-60
SNB-19 = system: SNB-19
SF-268 = system: SF-268
NCI-H460 = system: NCI-H460
HCC 2998 = system: HCC 2998
UACC-62 = system: UACC-62

Q: For N#CC(NNC(=O)c1c(Cl)c(Cl)c(Cl)c(Cl)c1-c1nc2cc(C(=O)c3ccccc3)ccc2[nH]1)c1ccccc1 (configuration not stated), which GI50 (SN12C) is on record?
A: 6.61 µM (inactive)

Q: And the GI50 (NCI-H23)?
A: 7.45 µM (inactive)

Q: And the GI50 (MCF7)?
A: 2.9 µM (inactive)

Q: What about the GI50 (LOX IMVI) of the same compound?
A: 9.35 µM (inactive)

Q: And the GI50 (Malme-3M)?
A: 8.57 µM (inactive)

Q: And the GI50 (UO-31)?
A: 14 µM (inactive)

Q: And the GI50 (COLO 205)?
A: 10 µM (inactive)

Q: What about the GI50 (SNB-75) of the same compound?
A: 3.95 µM (inactive)

Q: And the GI50 (NCI-H522)?
A: 3.39 µM (inactive)

Q: What about the GI50 (RPMI-8226) of the same compound?
A: 6.85 µM (inactive)

Q: And the GI50 (Hs-578T)?
A: 6.78 µM (inactive)

Q: And the GI50 (OVCAR-3)?
A: 4.57 µM (inactive)

Q: What about the GI50 (SK-MEL-2) of the same compound?
A: 8.91 µM (inactive)

Q: What about the GI50 (MOLT-4) of the same compound?
A: 3.22 µM (inactive)

Q: What about the GI50 (EKVX) of the same compound?
A: 17.9 µM (inactive)

Q: And the GI50 (SF-539)?
A: 3.18 µM (inactive)

Q: And the GI50 (SF-295)?
A: 3.68 µM (inactive)

Q: And the GI50 (HOP-62)?
A: 7.82 µM (inactive)

Q: And the GI50 (A549)?
A: 6.76 µM (inactive)

Q: What about the GI50 (ACHN) of the same compound?
A: 10.6 µM (inactive)

Q: What about the GI50 (DU-145) of the same compound?
A: 24.3 µM (inactive)

Q: What about the GI50 (SK-MEL-5) of the same compound?
A: 3.4 µM (inactive)

Q: What about the GI50 (OVCAR-8) of the same compound?
A: 23.7 µM (inactive)

Q: What about the GI50 (KM12) of the same compound?
A: 7.45 µM (inactive)

Q: And the GI50 (OVCAR-5)?
A: 26.5 µM (inactive)

Q: What about the GI50 (MDA-MB-435) of the same compound?
A: 2.82 µM (inactive)

Q: And the GI50 (BT-549)?
A: 9.2 µM (inactive)

Q: What about the GI50 (MDA-N) of the same compound?
A: 2.56 µM (inactive)

Q: And the GI50 (NCI/ADR-RES)?
A: 3.43 µM (inactive)

Q: And the GI50 (MDA-MB-231)?
A: 9.2 µM (inactive)

Q: What about the GI50 (SW-620) of the same compound?
A: 8.87 µM (inactive)

Q: What about the GI50 (OVCAR-4) of the same compound?
A: 7.13 µM (inactive)

Q: What about the GI50 (SK-MEL-28) of the same compound?
A: 17.8 µM (inactive)

Q: And the GI50 (SR)?
A: 2.84 µM (inactive)

Q: And the GI50 (CAKI-1)?
A: 21.4 µM (inactive)

Q: And the GI50 (IGROV-1)?
A: 12.5 µM (inactive)

Q: And the GI50 (HCT-116)?
A: 10.6 µM (inactive)

Q: What about the GI50 (HCT-15) of the same compound?
A: 4.74 µM

Q: And the GI50 (TK-10)?
A: 21.8 µM (inactive)

Q: And the GI50 (M14)?
A: 7.46 µM (inactive)

Q: And the GI50 (K562)?
A: 3.24 µM (inactive)

Q: And the GI50 (786-0)?
A: 12.2 µM (inactive)

Q: What about the GI50 (PC-3) of the same compound?
A: 7.14 µM (inactive)

Q: And the GI50 (NCI-H226)?
A: 9.2 µM (inactive)

Q: What about the GI50 (U-251) of the same compound?
A: 15.8 µM (inactive)

Q: What about the GI50 (T47D) of the same compound?
A: 4.79 µM (inactive)

Q: And the GI50 (HOP-92)?
A: 15 µM (inactive)

Q: What about the GI50 (CCRF-CEM) of the same compound?
A: 4.02 µM (inactive)

Q: What about the GI50 (HT-29) of the same compound?
A: 8.53 µM (inactive)

Q: And the GI50 (UACC-257)?
A: 9.98 µM (inactive)

Q: And the GI50 (RXF 393)?
A: 3.18 µM (inactive)

Q: What about the GI50 (SK-OV-3) of the same compound?
A: 13 µM (inactive)

Q: And the GI50 (HL-60)?
A: 4.69 µM (inactive)

Q: And the GI50 (SNB-19)?
A: 12.4 µM (inactive)

Q: What about the GI50 (SF-268) of the same compound?
A: 7.83 µM (inactive)

Q: With Cc1cc(NS(=O)(=O)c2ccc(NC(NC(=O)C(C(F)(F)F)C(F)(F)F)(C(F)(F)F)C(F)(F)F)cc2)no1 as the compound, how does the GI50 (SN12C) read?
A: > 100 µM (inactive)

Q: What about the GI50 (NCI-H23) of the same compound?
A: > 100 µM (inactive)

Q: What about the GI50 (MCF7) of the same compound?
A: > 100 µM (inactive)

Q: And the GI50 (LOX IMVI)?
A: > 100 µM (inactive)

Q: What about the GI50 (Malme-3M) of the same compound?
A: > 100 µM (inactive)

Q: What about the GI50 (UO-31) of the same compound?
A: > 100 µM (inactive)

Q: And the GI50 (COLO 205)?
A: > 100 µM (inactive)

Q: What about the GI50 (SNB-75) of the same compound?
A: > 100 µM (inactive)

Q: What about the GI50 (NCI-H460) of the same compound?
A: > 100 µM (inactive)

Q: And the GI50 (RPMI-8226)?
A: > 100 µM (inactive)

Q: What about the GI50 (Hs-578T) of the same compound?
A: > 100 µM (inactive)

Q: And the GI50 (OVCAR-3)?
A: > 100 µM (inactive)

Q: What about the GI50 (SK-MEL-2) of the same compound?
A: > 100 µM (inactive)

Q: And the GI50 (HCC 2998)?
A: > 100 µM (inactive)

Q: And the GI50 (MOLT-4)?
A: > 100 µM (inactive)

Q: And the GI50 (EKVX)?
A: > 100 µM (inactive)

Q: And the GI50 (SF-539)?
A: > 100 µM (inactive)

Q: And the GI50 (SF-295)?
A: > 100 µM (inactive)

Q: And the GI50 (HOP-62)?
A: > 100 µM (inactive)

Q: And the GI50 (A549)?
A: > 100 µM (inactive)

Q: And the GI50 (ACHN)?
A: > 100 µM (inactive)

Q: What about the GI50 (DU-145) of the same compound?
A: > 100 µM (inactive)

Q: What about the GI50 (SK-MEL-5) of the same compound?
A: > 100 µM (inactive)

Q: What about the GI50 (OVCAR-8) of the same compound?
A: > 100 µM (inactive)

Q: And the GI50 (KM12)?
A: > 100 µM (inactive)

Q: What about the GI50 (OVCAR-5) of the same compound?
A: > 100 µM (inactive)

Q: What about the GI50 (MDA-MB-435) of the same compound?
A: > 100 µM (inactive)

Q: What about the GI50 (BT-549) of the same compound?
A: > 100 µM (inactive)

Q: And the GI50 (MDA-N)?
A: > 100 µM (inactive)

Q: What about the GI50 (NCI/ADR-RES) of the same compound?
A: > 100 µM (inactive)

Q: What about the GI50 (MDA-MB-231) of the same compound?
A: > 100 µM (inactive)

Q: And the GI50 (SW-620)?
A: > 100 µM (inactive)

Q: And the GI50 (OVCAR-4)?
A: > 100 µM (inactive)

Q: What about the GI50 (SK-MEL-28) of the same compound?
A: > 100 µM (inactive)

Q: What about the GI50 (SR) of the same compound?
A: > 100 µM (inactive)

Q: What about the GI50 (CAKI-1) of the same compound?
A: > 100 µM (inactive)

Q: What about the GI50 (IGROV-1) of the same compound?
A: > 100 µM (inactive)

Q: What about the GI50 (UACC-62) of the same compound?
A: > 100 µM (inactive)

Q: And the GI50 (HCT-116)?
A: > 100 µM (inactive)

Q: What about the GI50 (HCT-15) of the same compound?
A: > 100 µM

Q: What about the GI50 (TK-10) of the same compound?
A: > 100 µM (inactive)

Q: And the GI50 (M14)?
A: 58.7 µM (inactive)

Q: What about the GI50 (K562) of the same compound?
A: > 100 µM (inactive)

Q: And the GI50 (786-0)?
A: > 100 µM (inactive)

Q: What about the GI50 (PC-3) of the same compound?
A: > 100 µM (inactive)

Q: What about the GI50 (NCI-H226) of the same compound?
A: > 100 µM (inactive)

Q: And the GI50 (U-251)?
A: > 100 µM (inactive)

Q: What about the GI50 (T47D) of the same compound?
A: > 100 µM (inactive)

Q: And the GI50 (HOP-92)?
A: > 100 µM (inactive)

Q: What about the GI50 (CCRF-CEM) of the same compound?
A: > 100 µM (inactive)

Q: What about the GI50 (HT-29) of the same compound?
A: > 100 µM (inactive)

Q: And the GI50 (UACC-257)?
A: > 100 µM (inactive)

Q: What about the GI50 (RXF 393) of the same compound?
A: > 100 µM (inactive)

Q: And the GI50 (SK-OV-3)?
A: 1.96 µM (inactive)

Q: What about the GI50 (HL-60) of the same compound?
A: > 100 µM (inactive)

Q: What about the GI50 (SNB-19) of the same compound?
A: > 100 µM (inactive)

Q: What about the GI50 (SF-268) of the same compound?
A: > 100 µM (inactive)
